Assay results reported in patent US6447801B1, “Anti-parasitic action of N,N-diethyl-m-toluamide (deet) and formulations that prolong its activity in the skin” (priority 1997, dated 2002).
Several values for one entry are separate records, joined by “and”; a condition that tells them apart may be missing. Equal entries are not always repeated.

How the values were obtained:
cercariae of S. mansoni [1] = assay: Effect of DEET on the morphology of cercariae (transmission electron microscopy); assay type: cell-based, Schistosoma mansoni
Protocol: Effect of DEET on cercarial morphology was evaluated by transmission electron microscopic studies. In these experiments, approximately 300-500 cercariae of S. mansoni suspended in 100 μl of PBS were placed in each well of a 96 well plate coated with varying concentrations of DEET (ranging from 7.5%-40%) or isopropanol (control) as described above. Samples were collected at 5, 10, 20, 30 and 240 minutes after exposure to DEET and processed for transmission electron microscopy as described in Salafsky et al., Exper. Parasitol., 67:116-127 (1988). Briefly, cercariae collected from each tube were transferred to fresh tubes containing PBS plus 10% fetal bovine serum (Sigma Chemical Co.) and concentrated into a pellet by centrifugation at 500 rpm (300 g) for 5 minutes. The pellet was then fixed overnight at 4° C. in a fixative containing 3% gluteraldehyde, and 1% formaldehyde in a 0.1 M phosphate buffer (pH 7.2). After one hour post fixation in 1% osmium tetroxide the pellet were dehydrated through a graded acetone series and embedded in epon resin. Sections were examined in a Hitachi H-500 transmission electron microscope after staining with uranyl acetate and lead citrate.

cercariae of S. mansoni [2] = assay: Cercarial penetration through mouse skin and worm establishment, application before infection (compressed organ autoradiography); assay type: in vivo, Schistosoma mansoni; details: for protection against schistosomiasis: 10% DEET
Excerpt: (§1) For in vivo animal experiments, male mice of the CD1 strain, weighing approximately 18-20 grams, purchased from Charles River Laboratories (Wilmington, Mass.) were used. The use of animals in these experiments were in compliance with the Animal Welfare Act and other Federal statues and regulations relating to animals as stated in the National Institute of Health publication: Guide for the Care and Use of Laboratory Animals. Mice were infected individually with schistosome cercariae via either tail skin or via shaved abdominal skin. For infection via tail skin, the mouse was restrained in a cage and the tail was dipped for 60 minutes in a tube containing 250-300 ^35S-labeled cercariae suspended in 10 ml of distilled water at room temperature. For infection via abdominal skin, the mouse was restrained on its back. After shaving the abdominal skin, 150-200 ^35S-labeled cercariae were applied to the skin in a drop of distilled water, covered with a cover slip and exposed for 30 minutes.
(§2) To determine skin penetration and worm establishment, whole tail skin or the area of abdominal skin that was exposed to the cercariae as described above and the lungs were removed from each mouse on day seven after infection and processed for compressed organ autoradiography techniques as described previously (Li J W et al., Parasitology International 46: 55-65 (1997)). Briefly, the skin and lungs were mounted on a cardboard sheet, covered with plastic wrap and kept under a tissue press for 48 hrs at room temperature. The pressed and dried tissue was then exposed to X-ray film (Fuji RX, Fisher Scientific, Pittsburgh, Pa.) at −70° C. for 7-9 days. Following autoradiographic development, the dark spots (which represent reduced silver foci on film) were counted and percent worm establishment was calculated (number of spots/total number of cercariae used for infection X 100).
For application of DEET to the tail skin, mice were individually kept in restraining cages and their tail was dipped in 7.5% DEET solution (prepared in isopropanol) for 5 min. Following application the skin was air dried for 30 min, and rinsed in distilled water for 1 min before exposure to radio-labeled cercariae of S. mansoni as mentioned in Example 3.
For application of DEET to the abdominal skin, mice were restrained to the back and their abdomen shaved. 200 μl of an appropriate concentration of DEET in isopropanol solution was dropped on to the abdomen and allowed to dry for 15 min. After drying, the skin was washed for 1 min with distilled water and exposed to radio-labeled cercariae for 30 min.
Experiments were also conducted to see how long the cercaricidal activity of DEET remained in the skin after a single application. In these experiments 10% DEET was applied to the shaved abdominal skin of mice and was allowed to dry. Thirty minutes after DEET application, the area of skin was washed continuously for one minute with running distilled water. At different time points (30 min, 1 hr, 4 hrs, and 24 hrs) after DEET application, mice were infected with radio-labeled cercariae (as described in Example 2) and worm establishment was determined by compressed organ autoradiography (as described in Example 3).

cercariae of S. mansoni [3] = assay: Effect of DEET applied to the skin after exposure to S. mansoni infection in mice; assay type: in vivo, Schistosoma mansoni
Excerpt: as §1, with “For infection via abdominal skin, the mouse was restrained on its back. After shaving the abdominal skin, 150-200 ^35S-labeled cercariae were applied to the skin in a drop of distilled water, covered with a cover slip and exposed for 30 minutes.” left out
as §2, with “Briefly, the skin and lungs were mounted on a cardboard sheet, covered with plastic wrap and kept under a tissue press for 48 hrs at room temperature. The pressed and dried tissue was then exposed to X-ray film (Fuji RX, Fisher Scientific, Pittsburgh, Pa.) at −70° C. for 7-9 days.” left out, “100). […]” for “100).”

Aedes aegypti = assay: Laboratory evaluation as mosquito repellant on human volunteers; assay type: in vivo; details: 10% or 30%; human forearm
Protocol: However, one of the major uses of DEET is against mosquitoes. Therefore, we wanted to test whether Lipodeet prolongs the mosquito repellency activity of DEET. These experiments were conducted on human volunteers at the Illinois Natural History Survey Center for Economic Entomology, University of Illinois Urbana-Champaign. […] The test solutions were applied to 8.5 cm area (1.76 μl/cm^2) on the forearm of the subjects and the duration of repellency against the mosquitoes was evaluated over a period of 24 hrs. No treatment was applied to the other forearm and this remained as controls. Paper cups (1 pint) screened at one end with a fine mesh and closed at the other end was used as test cages in this study. […] Five minutes after application of the samples were treated as time 0. After the exposure, mosquitoes were removed and the number that were blooded were counted. Values were expressed as follows: [formula]

[4] = 7.5% DEET applied to skin before infection, mice, day 7, n = 10

CCN(CC)C(=O)c1cccc(C)c1 [DEET, N,N-diethyl-m-toluamide]
ultrastructural changes of cercariae (cercariae of S. mansoni [1]; 7.5% DEET, evident as early as five minutes post-exposure): ultrastructural changes of two types were observed | lysis of cercariae (cercariae of S. mansoni [1]; 240 min after exposure to DEET): Frank lysis of cercariae | protection against cercarial penetration (cercariae of S. mansoni [2]; 5% DEET applied to mouse skin): 72% | Percent Worm Established, Lungs (cercariae of S. mansoni [2]; [4]): 0 | Percent Worm Established, Skin (cercariae of S. mansoni [2]; [4]): 0.13 ± 0.01% | Percent Worm Established, Total (cercariae of S. mansoni [2]; [4]): 0.13% and 0.13 ± 0.01% | protection against schistosomiasis (cercariae of S. mansoni [2]; infection 30 min after application, skin washed one minute): 100% | protection against schistosomiasis (cercariae of S. mansoni [2]; infection 24 hrs after application): no protection at all | protection against schistosomiasis (cercariae of S. mansoni [2]; infection four hours after application): 85±1% | protection against schistosomiasis (cercariae of S. mansoni [2]; infection one hour after application): 98±1% | effectiveness in preventing the entry of cercaria into the mouse skin (cercariae of S. mansoni [2]; DEET at 10, 20 or 40%): 100% | protection (cercariae of S. mansoni [3]; 40% DEET applied 4 hrs or more after infection): no protection | effectiveness in preventing the infection (cercariae of S. mansoni [3]; 40% DEET applied within 30 min after exposure to cercariae): 100% | duration of mosquito repellent effect (Aedes aegypti): completely lost by six hours
